# Results from US20170128426A1, “NOVEL DOSAGE AND FORMULATION” (Almirall, S.A., priority 2012, published 2017).
# Assay: Solubility of aclidinium bromide in solvents
# Format: physicochemical
# Description: Aclidinium bromide is a white powder with a molecular formula of C26H30NO4S2Br and a molecular mass of 564.56. […] This compound is known to be a long-acting anticholinergic useful in the treatment of respiratory diseases.
compound,measurement,setting,value
"O=C(O[C@H]1C[N+]2(CCCOc3ccccc3)CCC1CC2)C(O)(c1cccs1)c1cccs1.[Br-] [Aclidinium bromide, 3(R)-(2-hydroxy-2,2-dithien-2-ylacetoxy)-1-(3-phenoxypropyl)-1-azoniabicyclo[2.2.2]octane bromide]",solubility in ethanol,ethanol,very slightly soluble
same,solubility in methanol,methanol,sparingly soluble
same,solubility in water,water,very slightly soluble
